Data taken from patent US12298319B2, “Method for measuring alpha value of muscarinic M1 receptor positive allosteric modulators” (Takeda Pharmaceutical Company Limited, priority 2017, dated 2025).
Counter-ions that a name gives are not always drawn.

Columns and labels:
[1] = system: layer 5 pyramidal neurons; experiment: Electrophysiology, current clamp of layer 5 pyramidal neurons in mPFC slices; type: cell-based, mouse; conditions: bath application, Compound D at 10 μM
Description: Experiments were performed on coronal brain slices of the medial prefrontal cortex (mPFC) from 4-week-old male C57BL/6 mice. The animals were quickly sacrificed and the brain was placed in an ice-cold NMDG artificial cerebrospinal fluid (ACSF) (in mM): NMDG, 92; KCl, 2.5; CaCl2, 0.5; NaH2PO4, 1.25; MgSO4, 6; NaHCO3, 30; glucose, 25; HEPES, 20; thiourea, 2; Na-ascorbate, 5; and Na-pyruvate, 3) (Ting J. T. et al., Methods Mol Biol. 2014; 1183:221-42). Slices were cut at a thickness of 300 μm with a vibroslicer. Slices were initially transferred to a holding chamber containing NMDG aCSF for 15 minutes at 34° C. Slices were then transferred to a room temperature holding chamber for at least 1 h containing HEPES aCSF (in mM): NMDG, 92; KCl, 2.5; CaCl2, 2; NaH2PO4, 1.25; MgSO4, 2; NaHCO3, 30; glucose, 25; HEPES, 20; thiourea, 2; Na-ascorbate, 5; and Na-pyruvate, 3). Subsequently, the slices were transferred to the recording chamber, in which they were submerged and perfused with aCSF containing the following (in mM): NaCl, 124; KCl, 5; NaH2PO4, 1.2; MgCl2, 1.5; CaCl2, 2.5; glucose, 10; and NaHCO3, 24), at a flow rate of 1-2 ml/min. All buffers were continuously bubbled and saturated with carbogen (95% O2/5% CO2). Current clamp recordings were carried out at 32-33° C. from visually identified pyramidal neurons from layer 5 using a borosilicate pipette (5-7 MΩ) filled with intracellular solution (in mM): K-gluconate, 135; KCl, 4; HEPES, 10; EGTA, 0.2; MgATP, 4; Na2GTP, 0.3; pH 7.3 with KOH). Signals were acquired using a Multiclamp 700B amplifier and a Digidata 1440A interface board (Molecular Devices Japan, Tokyo, Japan), filtered between 2 kHz, sampled at 10 kHz, and analyzed with pClamp10 software.
M1Rs are known to contribute to the three cholinergic effects in layer 5 pyramidal neurons: the resting membrane potential (RMP) and physiological responses such as the after hyperpolarization (AHP) the after depolarization (ADP) that typically follow brief periods of action potential generation (Gulledge et al., J. Neurosci. 2009 Aug. 5; 29(31): 9888-9902). To investigate effects of M1 PAMs with different n value on brain function, cholinergic excitation by Compound D and Compound C were assessed. First, the muscarinic receptor agonist carbachol ([…] for 10 min) was tested by bath application (FIG. 13-A, FIG. 13-B, FIG. 13-C).

[2] = system: scopolamine-induced cognitive deficits in rats; experiment: Novel object recognition task (NORT), scopolamine-induced memory deficits; type: in vivo, rat
Description: On the day before testing, Long Evans rats were allowed to habituate to the behavioral test room environment for over 1 h, and then they were allowed to habituate to the empty test box (a gray-colored polyvinyl chloride box (40×40×50 cm)) for 10 min individually. Testing was comprised of two 3-min trials called the acquisition and the retention trials. These trials were separated by a given inter-trial interval (ITI). On the testing day, in the acquisition trial, rats were allowed to explore two identical objects (A1 and A2) for 3 min. In the retention trial, rats were again allowed to explore a familiar object (A3) and a novel object (B) for 3 min. The object exploration was defined as rats' licking, sniffing or touching the object with limbs while sniffing. Leaning against the object to look upward, standing or sitting on the object was excluded. The exploration time of each object (A1, A2, A3 and B) in each trial was measured manually. Novel discrimination index (NDI) was calculated using the following equation: novel object interaction/total interaction×100(%).
The acquisition and the retention trials were separated by 4 h ITI. […] Scopolamine (0.1 mg/kg) was administered subcutaneously 30 min prior to the acquisition trial.
(§1) The acquisition and the retention trials were separated by 4 h ITI.
as §1

[3] = system: rats; experiment: Assessment of cholinergic side effects in rats
Description: SD Rats were placed individually into observation cages and acclimated for at least 1 h. […] The severity of diarrhea was scored as follows: 0, normal pellets; 1, wet but formed feces; 2, swollen or mucous feces; 3, severe watery diarrhea. For diarrhea, the number of rats and mice, in which more than or equal to 2 was scored, was counted. For fasciculation, the number of rats with marked fasciculation of both the upper and lower limbs was counted. For lacrimation, the number of rats, in which moderate to marked discharge (severer lacrimation than fluid around eyes) was induced, was counted. For salivation, the number of rats with severe salivation, but not just noticeably wet around mouth, was induced was counted. The maximum score during the observation was adopted.
(§2) For diarrhea, the number of rats scored more than or equal to 2 was counted. For fasciculation, the number of rats with marked fasciculation of both the upper and lower limbs was counted. For lacrimation, the number of rats in which moderate to marked discharge (severer lacrimation than fluid around eyes) was counted. For salivation, the number of rats with severe salivation, but not just noticeably wet around mouth, was counted. The maximum score during the observation was adopted. Data were presented as the number of incidence per total rats.
as §2, with “in which loose” for “scored more than”, “mucous stool, or diarrhea was induced” for “equal to 2”, “(severe” for “(severer”, “eyes) was caused” for “eyes)”, “mouth” for “mouth,”

[4] = carbachol 10 M [sic] for 10 min

C[N+](C)(C)CCOC(N)=O [Carbachol, carbachol]
after hyperpolarization (AHP) [1, 4]: suppressed AHP | resting membrane potential (RMP) [1, 4]: induced depolarization of the RMP | after depolarization (ADP) ([1]; carbachol for 10 min as printed): produced an ADP potential

COc1cc2c(cc1OC)C(=O)C(CC1CCN(Cc3ccccc3)CC1)C2 (stereo not shown) [Donepezil, Donepezil hydrochloride]
NDI in NORT, scopolamine-induced deficits ([2]; 0.3 and 1 mg/kg p.o., rats, P≤0.025): significantly increased NDI | minimal efficacy dose in rats (cognitive improvement) ([2]; NORT, scopolamine-treated rats, p.o.): 0.3 mg/kg | NDI ([2]; scopolamine-treated rats, 0.1 mg/kg p.o. alone, Example 28): 52.7% | NDI ([2]; scopolamine-treated rats, donepezil 0.1 mg/kg p.o. alone, Example 29): 49.5% | cholinergic side effects in addition to diarrhea ([3]; 10 mg/kg p.o., rats): induced salivation, myosis, and fasciculation | diarrhea induction in rats (score) ([3]; P≤0.025 at 10 and 30 mg/kg p.o.): induced diarrhea dose-dependently

CCN(C)C(=O)Oc1cccc([C@H](C)N(C)C)c1 [Rivastigmine, rivastigmine]
NDI ([2]; scopolamine-treated rats, rivastigmine 0.1 mg/kg i.p. alone, Example 31): 53.9%
